Values joined by “and” are separate entries in the source; they are usually repeats but may differ in a detail not shown here. Equal entries are not always repeated. Inconclusive results and toxic doses are left out.

This experiment has as its system BDF1 mice, P388 leukemia ip, median survival T/C. The experiment is described as follows: NCI In Vivo Anticancer Drug Screen. Data for tumor model P388 Leukemia (intraperitoneal) in B6D2F1 (BDF1) mice. The settings on record: endpoint: median survival time, higher = longer survival. The procedure, abridged: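 Reported as T/C, where T is the survival measurement in dosed animals and C the same measurement in vehicle controls.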

The mark [1] stands for this setting: dose: 12.5 mg/kg/injection, schedule: Q01DX010 (ip), vehicle: saline.
The mark [2] stands for this setting: dose: 25.0 mg/kg/injection, schedule: Q01DX009 (ip), vehicle: saline.
The mark [3] stands for this setting: dose: 50.0 mg/kg/injection, schedule: Q01DX009 (ip), vehicle: saline.
The mark [4] stands for this setting: dose: 25.0 mg/kg/injection, schedule: Q01DX009 (ip), vehicle: saline with Tween-80.
The mark [5] stands for this setting: dose: 50.0 mg/kg/injection, schedule: Q01DX009 (ip), vehicle: saline with Tween-80.
The mark [6] stands for this setting: dose: 100.0 mg/kg/injection, schedule: Q01DX009 (ip), vehicle: saline with Tween-80.
The mark [7] stands for this setting: dose: 100.0 mg/kg/injection, schedule: Q01DX009 (ip), vehicle: saline.
Where [8] appears, read: dose: 100.0 mg/kg/injection, schedule: Q04DX003 (ip), vehicle: saline with Tween-80.
The mark [9] stands for this setting: dose: 100.0 mg/kg/injection, schedule: Q04DX003 (ip), vehicle: saline.
Where [10] appears, read: dose: 200.0 mg/kg/injection, schedule: Q01DX009 (ip), vehicle: saline.
[11] abbreviates: dose: 200.0 mg/kg/injection, schedule: Q04DX003 (ip), vehicle: saline with Tween-80.
The mark [12] stands for this setting: dose: 400.0 mg/kg/injection, schedule: Q04DX003 (ip), vehicle: saline with Tween-80.
[13] abbreviates: dose: 12.5 mg/kg/injection, schedule: Q01DX009 (ip), vehicle: saline with Tween-80.
Setting [14] is: dose: 200.0 mg/kg/injection, schedule: Q01DX009 (ip), vehicle: saline with Tween-80.

Take `COc1cc([C@@H]2c3cc4c(c(OC)c3C[C@H]3COC(=O)[C@@H]32)OCO4)cc(OC)c1OC`: the T/C is 105 % of control (dose: 12.5 mg/kg/injection, schedule: Q01DX001 (ip), vehicle: other); 172 % of control under setting [1]; 100 % of control (dose: 25.0 mg/kg/injection, schedule: Q01DX001 (ip), vehicle: saline); 104 % of control (dose: 25.0 mg/kg/injection, schedule: Q01DX010 (ip), vehicle: saline); 113 % of control (dose: 50.0 mg/kg/injection, schedule: Q01DX001 (ip), vehicle: saline); 90 % of control (dose: 50.0 mg/kg/injection, schedule: Q01DX010 (ip), vehicle: other). The T/C by setting is: (dose: 100.0 mg/kg/injection, schedule: Q01DX001 (ip), vehicle: saline) 113 % of control; (dose: 200.0 mg/kg/injection, schedule: Q01DX001 (ip), vehicle: saline) 118 % of control.

Take `CC1(C)N=C(N)N=C(N)N1c1ccc(OCC(=O)N2CCOCC2)cc1`: the T/C is, setting by setting: under setting [2], 113 % of control; under setting [3], 113 % of control.

As to `NC(N)=NCCNC(=O)C1CCC(N)C1` (configuration not stated), the T/C by setting is: (dose: 0.08 mg/kg/injection, schedule: Q01DX009 (ip), vehicle: saline) 97 % of control; (dose: 0.16 mg/kg/injection, schedule: Q01DX009 (ip), vehicle: saline) 97 % of control; (dose: 0.32 mg/kg/injection, schedule: Q01DX009 (ip), vehicle: saline) 99 % of control; (dose: 0.63 mg/kg/injection, schedule: Q01DX009 (ip), vehicle: saline) 100 % of control.

With `OCCOCC(F)(F)F`, the T/C is, setting by setting: under setting [4], 98 % of control; under setting [5], 105 % of control; under setting [6], 88 % of control and 108 % of control; under setting [7], 122 % of control; under setting [8], 100 % of control; under setting [9], 100 % of control. Besides, the T/C is, setting by setting: under setting [10], 122 % of control; under setting [11], 123 % of control; (dose: 200.0 mg/kg/injection, schedule: Q04DX003 (ip), vehicle: saline) 100 % of control; (dose: 400.0 mg/kg/injection, schedule: Q01DX009 (ip), vehicle: saline) 111 % of control; under setting [12], 88 % of control; (dose: 400.0 mg/kg/injection, schedule: Q04DX003 (ip), vehicle: saline) 90 % of control.

In the case of `C/C(=N\N=C(/C)c1ccc(Cl)cc1)c1ccc(Cl)cc1`, the T/C (dose: 100.0 mg/kg/injection, schedule: Q01DX009 (ip), vehicle: Klucel (hydroxypropylcellulose) (HPC)) was 95 % of control; the T/C (dose: 200.0 mg/kg/injection, schedule: Q01DX009 (ip), vehicle: Klucel (hydroxypropylcellulose) (HPC)) is 90 % of control; the T/C (dose: 400.0 mg/kg/injection, schedule: Q01DX009 (ip), vehicle: Klucel (hydroxypropylcellulose) (HPC)) was 113 % of control.

With `CCN(CC)CCCOC(=O)/C=C/c1c(C)[nH]c(=O)[nH]c1=O`, the T/C is, setting by setting: (dose: 25.0 mg/kg/injection, schedule: Q04DX003 (ip), vehicle: saline) 104 % of control; (dose: 50.0 mg/kg/injection, schedule: Q04DX003 (ip), vehicle: saline) 117 % of control; under setting [9], 90 % of control.

`Cc1ccn(/C(N)=N/C(=S)Nc2ccccc2)n1`: the T/C runs as follows: (dose: 37.5 mg/kg/injection, schedule: Q01DX009 (ip), vehicle: saline with Tween-80) 108 % of control; (dose: 75.0 mg/kg/injection, schedule: Q01DX009 (ip), vehicle: saline with Tween-80) 90 % of control; (dose: 150.0 mg/kg/injection, schedule: Q01DX009 (ip), vehicle: saline with Tween-80) 114 % of control.

Consider `CC(=O)Nc1ccc(S(=O)(=O)SC(F)(F)F)cc1`, for which the T/C (dose: 3.13 mg/kg/injection, schedule: Q01DX010 (ip), vehicle: saline) is 100 % of control; the T/C (dose: 6.25 mg/kg/injection, schedule: Q01DX010 (ip), vehicle: saline) was 104 % of control; the T/C under setting [1] is 100 % of control.

Consider `NC(Cc1ccccc1Cl)C(=O)O` (configuration not stated), for which the T/C is, setting by setting: under setting [13], 86 % of control; under setting [4], 101 % of control; under setting [2], 122 % of control; under setting [5], 107 % of control; under setting [3], 116 % of control; under setting [6], 102 % of control. Besides, the T/C under setting [14] was 94 % of control.

Turning to `O=[N+]([O-])c1cccc(N2CN(c3cccc([N+](=O)[O-])c3)CN(c3cccc([N+](=O)[O-])c3)C2)c1`, the T/C was 116 % of control under setting [5], 106 % of control under setting [6] and 100 % of control under setting [14].

Regarding `CCCCCCC(CCCCCC)(CCCCCC)B1OCCO1`, the T/C under setting [6] was 100 % of control; the T/C under setting [8] was 100 % of control; the T/C under setting [14] is 104 % of control; the T/C under setting [11] is 109 % of control; the T/C (dose: 400.0 mg/kg/injection, schedule: Q01DX009 (ip), vehicle: saline with Tween-80) is 123 % of control; the T/C under setting [12] was 104 % of control.

Regarding `C=CC[n+]1ccccc1C(c1ccccc1)c1ccccc1`, the T/C (dose: 6.25 mg/kg/injection, schedule: Q01DX009 (ip), vehicle: saline with Tween-80) is 116 % of control; the T/C under setting [13] is 120 % of control; the T/C (dose: 12.5 mg/kg/injection, schedule: Q04DX003 (ip), vehicle: saline with Tween-80) is 91 % of control.

With `Cn1nnc(CC(=O)O)n1`, the T/C by setting is: under setting [3], 110 % of control; under setting [7], 101 % of control; under setting [10], 99 % of control.

In the case of `O=[N+]([O-])c1cc([N+](=O)[O-])c2ccccc2c1NS(=O)(=O)c1ccc(Cl)c(Cl)c1`, the T/C was 92 % of control under setting [5] and 111 % of control under setting [6].

For `CC(=O)C(O)N1C(=O)C=CC1=O` (configuration not stated), the T/C reads like this: (dose: 0.31 mg/kg/injection, schedule: Q04DX003 (ip), vehicle: saline) 95 % of control; (dose: 0.62 mg/kg/injection, schedule: Q04DX003 (ip), vehicle: saline) 100 % of control; (dose: 1.25 mg/kg/injection, schedule: Q04DX003 (ip), vehicle: saline) 100 % of control; (dose: 2.5 mg/kg/injection, schedule: Q04DX003 (ip), vehicle: saline) 91 % of control; (dose: 5.0 mg/kg/injection, schedule: Q04DX003 (ip), vehicle: saline) 91 % of control.

The record behind these values is PubChem BioAssay AID328 (DTP/NCI, 2004).
